Test results as given in publication PMC7118210 (Frontiers in Pharmacology, 2020).
Like-named read-outs stand apart in the source and are kept apart here.

Assay: Single-dose pharmacokinetics in dogs (plasma, UHPLC/MS/MS)
Type: in vivo, Beagle dogs
Details: for MRT last: read-out: MRT0-t; for MRT inf: read-out: MRT0-∞
From the text: Sixty healthy adult Sprague Dawley rats (180-220 g, half male and female) were purchased from the Guangdong Medical Laboratory Animal Center (Guangzhou, Guangdong, China). Thirty Beagle dogs (10-14 kg, half male and female) were purchased from the […] Laboratory Animal Science & Technology Co., Ltd. (Gaoyao, Guangdong, China). All animals were housed under humanized conditions with free access to food and water, and acclimated to the living conditions for at least one week prior to experimentation at the Laboratory Animal Center of the School of Life Sciences, Sun Yat-sen University. Environmental conditions were maintained at 20°C-25°C, 55% ± 15% relative humidity, 12-h light/dark cycles, and 12 air changes per hour. Prior to experimentation, the animals were fasted overnight with water available ad libitum. All animals were healthy based on physical examination and laboratory analyses performed before and after the experiments. At the end of the experiments, the dogs were returned to the Laboratory Animal Center of School of Life Sciences, Sun Yat-sen University. […] All blood samples were transferred into heparin-treated centrifuge tubes and centrifuged for 10 min at 4,000 rpm and 4°C. All human urine samples were mixed and transferred (4 ml) into storage tubes. All biological samples were stored at -80°C. […] The optimal volume and activity in unit volume of enzyme solution [0.2 M acetic acid/water solution: 0.2 M ammonium acetate/water solution, 15:35 (v/v)] were determined through a pretest of the enzyme (rat plasma, 10 μl, 10 U μl^-1; dog plasma, 10 μl, 10 U μl^-1; human plasma, 20 μl, 20 U μl^-1; human urine, 10 μl, 10 U μl^-1). After enzyme incubation, 10 μl of IS solution was added to the plasma and urine samples (2 μg ml^-1 quercetin 3-β-D-glucoside for rat and dog plasma; 583 ng ml^-1 naringin-D4 and 160 ng ml^-1 naringenin-D4 for human plasma; and 9,710 ng ml^-1 naringin-D4 and 6,000 ng ml^-1 naringenin-D4 for human urine). To each fecal sample, 9-fold methanol-normal saline (2:1, v/v) was added, mixed (18,000 rpm, 15 min) by vortexing and centrifuged (10 min, 9,000 rpm, 4°C). Next, 10 μl IS solution (971 ng ml^-1 naringin-D4 and 600 ng ml^-1 naringenin-D4) was added to the supernatants of feces (200 μl) without enzyme incubation. […] The solid material was dissolved with acetonitrile-water (1:1, v/v) and injected into the ultra high-performance liquid chromatography coupled with triple quadrupole mass spectrometry (UHPLC/MS/MS) system as described below. The analysis of nonclinical and clinical samples was performed with a UHPLC/MS/MS system that consisted of a Shimadzu Nexera X2 ultra high-performance liquid chromatography (UHPLC) (Shimadzu Corp., Kyoto, Japan) coupled with an AB Sciex API4000 triple-quadrupole mass spectrometry (MS/MS) system (AB Sciex, Foster City, CA, USA) equipped with an electrospray ionization source and controlled by Analyst (v. 1.6.2) software. […] The injection volume was 10 μl with the flow rate of 0.3 ml min^-1 for plasma, and 0.4 ml min^-1 for urine and feces. The compounds were detected by multiple reaction monitoring in the negative ion electrospray mode. The electrospray source conditions were as follows: ion source gas1 30 psi, ion source gas2 60 psi, curtain gas 20 psi, collisionally activated dissociation (CAD) gas 8 psi, temperature 500°C, and ion spray voltage -4,500 V. Zero air was used for ion source gas1 and ion source gas2 and nitrogen for curtain gas and CAD gas. […] All pharmacokinetic and excretion parameters were expressed as mean ± standard deviation (SD). All mean and SD values were reported to three significant figures. The pharmacokinetic parameters were calculated using the Phoenix WinNonlin software (Version 6.4, Pharsight Corp., Cary, NC, USA) and compared using the Student's t-test (p < 0.05) in SPSS 18.0 (SPSS Inc., Chicago, IL, USA). […]

[1] = both sexes, Beagle, dog, plasma, po, 3.1 mg/kg
[2] = both sexes, Beagle, dog, plasma, po, 12.4 mg/kg
[3] = both sexes, beagle, dog, plasma, iv, 12.4 mg/kg
[4] = both sexes, beagle, dog, plasma, po, 49.6 mg/kg
[5] = female, Beagle, dog, plasma, iv, 12.4 mg/kg
[6] = female, Beagle, dog, plasma, po, 3.1 mg/kg
[7] = female, Beagle, dog, plasma, po, 12.4 mg/kg
[8] = female, Beagle, dog, plasma, po, 49.6 mg/kg
[9] = male, Beagle, dog, plasma, iv, 12.4 mg/kg
[10] = male, Beagle, dog, plasma, po, 3.1 mg/kg
[11] = male, Beagle, dog, plasma, po, 12.4 mg/kg
[12] = male, Beagle, dog, plasma, po, 49.6 mg/kg
[13] = naringin 3.1 mg kg^-1 p.o. single dose, dog
[14] = naringin 12.4 mg kg^-1 p.o. single dose, dog
[15] = naringin 49.6 mg kg^-1 p.o. single dose, dog

C[C@@H]1O[C@@H](O[C@H]2[C@H](Oc3cc(O)c4c(c3)O[C@H](c3ccc(O)cc3)CC4=O)O[C@H](CO)[C@@H](O)[C@@H]2O)[C@H](O)[C@H](O)[C@H]1O [naringin, Naringin]
half-life (both sexes, Beagle, dog, plasma, po): 1.41 ± 0.671 h
AUC(0-inf) [1]: 129 ± 78.2 ng·h/mL
AUC(0-t) [1]: 108 ± 58.8 ng·h/mL
Cmax [1]: 39.9 ± 10.4 ng/mL
Tmax [1]: 1.33 ± 0.258 h
half-life [1]: 1.84 ± 1.46 h
MRT last [1]: 2.5 ± 1.05 h
MRT inf [1]: 3.38 ± 1.88 h
AUC(0-inf) [2]: 135 ± 35.5 ng·h/mL
AUC(0-t) [2]: 124 ± 32.2 ng·h/mL
Cmax [2]: 70.2 ± 16.9 ng/mL
Tmax [2]: 1 ± 0.316 h
half-life [2]: 1.31 ± 0.581 h
MRT last [2]: 1.77 ± 0.371 h
MRT inf [2]: 2.17 ± 0.633 h
Tmax (both sexes, Beagle, dog, plasma, po, dogs, nonclinical p.o. administration studies overall): 1.11 ± 0.344 h
AUC(0-inf) [3]: 2930 ± 403 ng·h/mL
AUC(0-t) [3]: 2920 ± 406 ng·h/mL
Cmax [3]: 5800 ± 946 ng/mL
Tmax [3]: 0.08 h
clearance [3]: 71.8 mL/min/kg
half-life [3]: 1.37 ± 0.347 h
MRT last [3]: 0.703 ± 0.153 h
MRT inf [3]: 0.727 ± 0.143 h
Vd (both sexes, beagle, dog, plasma, iv, 12.4 mg/kg, read-out: Vd): 8.69 ± 3.35 L/kg
AUC(0-inf) [4]: 224 ± 104 ng·h/mL
AUC(0-t) [4]: 211 ± 92.1 ng·h/mL
Cmax [4]: 107 ± 78.2 ng/mL
Tmax [4]: 1 ± 0.447 h
half-life [4]: 1.31 ± 0.293 h
MRT last [4]: 2.46 ± 1.11 h
MRT inf [4]: 2.73 ± 1.02 h
AUC(0-inf) [5]: 3200 ± 337 ng·h/mL
AUC(0-t) [5]: 3190 ± 344 ng·h/mL
Cmax [5]: 5860 ± 1070 ng/mL
Tmax [5]: 0.08 h
half-life [5]: 1.25 ± 0.317 h
AUC(0-inf) [6]: 109 ± 67.7 ng·h/mL
AUC(0-t) [6]: 88.5 ± 40 ng·h/mL
Cmax [6]: 36.8 ± 12.6 ng/mL
Tmax [6]: 1.17 ± 0.289 h
half-life [6]: 1.26 ± 0.633 h
AUC(0-inf) [7]: 132 ± 36.8 ng·h/mL
AUC(0-t) [7]: 115 ± 27.9 ng·h/mL
Cmax [7]: 60.2 ± 10.8 ng/mL
Tmax [7]: 1 ± 0.1 h
half-life [7]: 1.42 ± 0.782 h
AUC(0-inf) [8]: 262 ± 144 ng·h/mL
AUC(0-t) [8]: 240 ± 128 ng·h/mL
Cmax [8]: 157 ± 87.5 ng/mL
Tmax [8]: 1.17 ± 0.289 h
half-life [8]: 1.13 ± 0.312 h
AUC(0-inf) [9]: 2640 ± 255 ng·h/mL
AUC(0-t) [9]: 2640 ± 256 ng·h/mL
Cmax [9]: 5740 ± 1050 ng/mL
Tmax [9]: 0.08 h
half-life [9]: 1.48 ± 0.404 h
AUC(0-inf) [10]: 149 ± 97.4 ng·h/mL
AUC(0-t) [10]: 128 ± 76.6 ng·h/mL
Cmax [10]: 42.9 ± 9.19 ng/mL
Tmax [10]: 1.5 ± 0.231 h
half-life [10]: 2.41 ± 1.98 h
AUC(0-inf) [11]: 137 ± 42.3 ng·h/mL
AUC(0-t) [11]: 132 ± 40 ng·h/mL
Cmax [11]: 80.2 ± 17.2 ng/mL
Tmax [11]: 1 ± 0.5 h
half-life [11]: 1.2 ± 0.443 h
AUC(0-inf) [12]: 185 ± 45.5 ng·h/mL
AUC(0-t) [12]: 181 ± 46.7 ng·h/mL
Cmax [12]: 56.6 ± 6.83 ng/mL
Tmax [12]: 0.833 ± 0.577 h
half-life [12]: 1.5 ± 0.117 h
CL [13]: 520 ± 257 mL/min/kg
Vd [13]: 61.2 ± 23.0 L/kg
CL [14]: 1630 ± 453 mL/min/kg
Vd [14]: 171 ± 59.4 L/kg
CL [15]: 4450 ± 2120 mL/min/kg
Vd [15]: 482 ± 173 L/kg

O=C1C[C@@H](c2ccc(O)cc2)Oc2cc(O)cc(O)c21 [naringenin, Naringenin]
half-life (both sexes, Beagle, dog, plasma, oral, naringenin in dogs, studies overall): 2.03 ± 0.968 h
lag-time in plasma (dogs, after p.o. naringin): 1.83 ± 0.923 h
time for concentrations to increase to Cmax after the lag-time (dogs, after p.o. naringin): 4.17 ± 1.68 h
